# In patent US8637510B2, “Morpholinothiazoles as alpha 7 positive allosteric modulators” (Janssen Pharmaceutica NV, priority 2009, dated 2014):
# Key:
# human alpha 7-wt nAChR = target: T1, human alpha 7-wt nAChR (Homo sapiens, UniProt P36544); test: Ca2+ flux imaging (FDSS) (Protocol B); type: cell-based; details: for Emax: efficacy of 100 μM choline defined as 100% in the absence of a PAM, read-out: a7-PAM-G_[33]_Eff_Curve_FI % Efficacy; for EC50: potentiation of 100 μM choline, compounds 0.01 μM to 30 μM, read-out: a7-PAM-G_[33]_pEC50 pEC50 (converted)
# T1 construct: expressed in transfected cells
# Summary of the method: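 Fluo-4AM-loaded cells expressing human α7-wt nAChR, in HBSS with 10 mM HEPES, 5 mM CaCl2, 0.1% BSA, received compound (0.01–30 μM), typically 10 min before 100 μM choline, with calcium flux read in real time. Potentiation is relative to choline alone (100%); EC50 from sigmoidal curves.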
# [1] = target: T2, human alpha 7-wt nAChR-expressing GH4C1 cells (Homo sapiens, UniProt P36544); test: Patch-clamp current recording (whole-cell voltage-clamp, PAM type classification); type: cell-based; set-up: key: Type 0 compounds minimally change the effect size of the current elicited by 1 mM choline.; Type 1 compounds enhance the effect size of the current elicited by 1 mM choline but minimally alter the kinetics of the receptor.; Type 2 compounds enhance the effect size of the current elicited by 1 mM choline while reducing the rate and/or the extent of desensitization.; Type 3 compounds enhance the effect size of the current elicited by 1 mM choline. When tested at higher concentrations up to 10 μM they completely inhibit desensitization; Type 4 compounds allow for an initial desensitization of the receptor followed by a re-opening of the receptor during agonist application; details: 1 mM choline
# T2 construct: expressed in transfected cells
# Summary of the method: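 Whole-cell voltage clamp of GH4C1 cells stably expressing human wild-type α7 nAChR, with compound co-applied with 1 mM choline via rapid (<100 ms) solution switching; external pH 7.3, CsCl-based internal solution, 1.5-3 MΩ electrodes. PAM type (0-4) assigned from current kinetics when peak potentiation reached ≥200% of control choline response.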
# T2 sequence (P36544 23-502): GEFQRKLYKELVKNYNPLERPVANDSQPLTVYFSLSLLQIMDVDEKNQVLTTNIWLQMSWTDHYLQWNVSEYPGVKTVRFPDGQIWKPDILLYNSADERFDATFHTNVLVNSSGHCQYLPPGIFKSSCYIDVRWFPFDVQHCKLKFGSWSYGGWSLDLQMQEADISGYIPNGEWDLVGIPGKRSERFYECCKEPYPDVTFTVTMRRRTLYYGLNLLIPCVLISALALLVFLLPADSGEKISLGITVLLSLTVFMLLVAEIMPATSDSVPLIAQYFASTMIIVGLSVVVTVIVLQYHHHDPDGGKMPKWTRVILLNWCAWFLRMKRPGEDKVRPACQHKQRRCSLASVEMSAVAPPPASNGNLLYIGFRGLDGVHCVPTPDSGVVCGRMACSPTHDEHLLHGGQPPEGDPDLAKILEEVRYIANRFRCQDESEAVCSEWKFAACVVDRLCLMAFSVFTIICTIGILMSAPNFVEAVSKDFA
# T1 sequence (P36544 23-502): as above
Compound,Emax (human alpha 7-wt nAChR) [%],EC50 (human alpha 7-wt nAChR) [nM],melting point [°C],PAM_Type PAM type [1]
"CCC(=O)NCc1nc(N2C[C@@H](C)O[C@@H](C)C2)sc1-c1cc(C)nc(C)c1 [Compound 39, N-[[2-[(2R,6S)-2,6-dimethyl-4-morpholinyl]-5-(2,6-dimethyl-4-pyridinyl)-4-thiazolyl]methyl]-propanamide]",498,871,176,2
"COc1cc(-c2sc(N3C[C@@H](C)O[C@@H](C)C3)nc2CNC(=O)c2cc(C)on2)cc(C)n1 [Compound 82, N-[[2-[(2R,6S)-2,6-dimethyl-4-morpholinyl]-5-(2-methoxy-6-methyl-4-pyridinyl)-4-thiazolyl]methyl]-5-methyl-3-isoxazolecarboxamide]",459,324,203,1
"COc1cc(-c2sc(N3C[C@@H](C)O[C@@H](C)C3)nc2CNC(=O)CC2CC2)cc(C)n1 [Compound 83, N-[[2-[(2R,6S)-2,6-dimethyl-4-morpholinyl]-5-(2-methoxy-6-methyl-4-pyridinyl)-4-thiazolyl]methyl]-cyclopropaneacetamide]",584,145,171,2
"COc1cc(-c2sc(N3C[C@@H](C)O[C@@H](C)C3)nc2CNC(=O)C2CCC2)cc(C)n1 [Compound 84, N-[[2-[(2R,6S)-2,6-dimethyl-4-morpholinyl]-5-(2-methoxy-6-methyl-4-pyridinyl)-4-thiazolyl]methyl]-cyclobutanecarboxamide]",443,102,171,2
"COc1cc(-c2sc(N3C[C@@H](C)O[C@@H](C)C3)nc2CNC(=O)c2cccc(F)c2)cc(C)n1 [Compound 85, N-[[2-[(2R,6S)-2,6-dimethyl-4-morpholinyl]-5-(2-methoxy-6-methyl-4-pyridinyl)-4-thiazolyl]methyl]-3-fluoro-benzamide]",320,708,172,0
"Cc1cc(-c2sc(N3C[C@@H](C)O[C@@H](C)C3)nc2CNC(=O)c2cc(C)on2)ccn1 [Compound 87, N-[[2-[(2R,6S)-2,6-dimethyl-4-morpholinyl]-5-(2-methyl-4-pyridinyl)-4-thiazolyl]methyl]-5-methyl-3-isoxazolecarboxamide]",646,813,177,2
"Cc1cc(-c2sc(N3C[C@@H](C)O[C@@H](C)C3)nc2CNC(=O)CC2CC2)ccn1 [Compound 88, N-[[2-[(2R,6S)-2,6-dimethyl-4-morpholinyl]-5-(2-methyl-4-pyridinyl)-4-thiazolyl]methyl]-cyclopropaneacetamide]",736,562,177,2
"Cc1cc(-c2sc(N3C[C@@H](C)O[C@@H](C)C3)nc2CNC(=O)c2ccccc2Cl)ccn1 [Compound 90, 2-chloro-N-[[2-[(2R,6S)-2,6-dimethyl-4-morpholinyl]-5-(2-methyl-4-pyridinyl)-4-thiazolyl]methyl]-benzamide]",491,490,155,2
"Cc1ccc(-c2sc(N3C[C@@H](C)O[C@@H](C)C3)nc2CNC(=O)c2cc(C)on2)cn1 [Compound 118, N-[[2-[(2R,6S)-2,6-dimethyl-4-morpholinyl]-5-(6-methyl-3-pyridinyl)-4-thiazolyl]methyl]-5-methyl-3-isoxazolecarboxamide]",430,1860,148,0
"Cc1cc(-c2sc(N3CCOC(C)(C)C3)nc2CNC(=O)CC2CC2)cc(C)n1 [Compound 156, N-[[2-(2,2-dimethyl-4-morpholinyl)-5-(2,6-dimethyl-4-pyridinyl)-4-thiazolyl]methyl]-cyclopropaneacetamide]",–,1260,135,0

# Now from value to compound, other results behind:
Emax (human alpha 7-wt nAChR) [%],EC50 (human alpha 7-wt nAChR) [nM],melting point [°C],Compound,PAM_Type PAM type [1]
–,224,197,"Cc1cc(-c2sc(N3CCOC(C)(C)C3)nc2CNC(=O)c2ccc(F)cc2C)cc(C)n1 [Compound 157, N-[[2-(2,2-dimethyl-4-morpholinyl)-5-(2,6-dimethyl-4-pyridinyl)-4-thiazolyl]methyl]-4-fluoro-2-methyl-benzamide]",2
733,501,180,"Cc1cc(-c2sc(N3C[C@@H](C)O[C@@H](C)C3)nc2CNC(=O)c2ncsc2C)cc(C)n1 [Compound 178, N-[[2-[(2R,6S)-2,6-dimethyl-4-morpholinyl]-5-(2,6-dimethyl-4-pyridinyl)-4-thiazolyl]methyl]-5-methyl-4-thiazolecarboxamide]",0
–,70.8,168,"Cc1cc(-c2sc(N3CCOC(C(F)(F)F)C3)nc2CNC(=O)CC2CC2)cc(C)n1 (centres unmarked) [Compound 190, N-[[5-(2,6-dimethyl-4-pyridinyl)-2-[2-(trifluoromethyl)-4-morpholinyl]-4-thiazolyl]methyl]-cyclopropaneacetamide]",2
995,74.1,182,"Cc1cc(-c2sc(N3CCO[C@@H](C(F)(F)F)C3)nc2CNC(=O)CC2CC2)cc(C)n1 [Compound 191, N-[[5-(2,6-dimethyl-4-pyridinyl)-2-[(2R)-2-(trifluoromethyl)-4-morpholinyl]-4-thiazolyl]methyl]-cyclopropaneacetamide]",2
670,234,183,"Cc1cc(-c2sc(N3CCO[C@H](C(F)(F)F)C3)nc2CNC(=O)CC2CC2)cc(C)n1 [Compound 192, N-[[5-(2,6-dimethyl-4-pyridinyl)-2-[(2S)-2-(trifluoromethyl)-4-morpholinyl]-4-thiazolyl]methyl]-cyclopropaneacetamide]",2
–,55,189,"Cc1cc(-c2sc(N3CCOC(C(F)(F)F)C3)nc2CNC(=O)C(C)C)cc(C)n1 (centres unmarked) [Compound 194, N-[[5-(2,6-dimethyl-4-pyridinyl)-2-[2-(trifluoromethyl)-4-morpholinyl]-4-thiazolyl]methyl]-2-methyl-propanamide]",3
–,186,170,"Cc1cc(-c2sc(N3CCOC(C(F)(F)F)C3)nc2CNC(=O)c2cc(C)on2)cc(C)n1 (centres unmarked) [Compound 195, N-[[5-(2,6-dimethyl-4-pyridinyl)-2-[2-(trifluoromethyl)-4-morpholinyl]-4-thiazolyl]methyl]-5-methyl-3-isoxazolecarboxamide]",0
819,56.2,178,"Cc1cc(-c2sc(N3CCOC(C(F)(F)F)C3)nc2CNC(=O)c2conc2C)cc(C)n1 (centres unmarked) [Compound 196, N-[[5-(2,6-dimethyl-4-pyridinyl)-2-[2-(trifluoromethyl)-4-morpholinyl]-4-thiazolyl]methyl]-3-methyl-4-isoxazolecarboxamide]",2
–,363,205,"Cc1nocc1C(=O)NCc1nc(N2C[C@@H](C)O[C@@H](C)C2)sc1-c1ccnc(C(F)(F)F)c1 [Compound 197, N-[[2-[(2R,6S)-2,6-dimethyl-4-morpholinyl]-5-[2-(trifluoromethyl)-4-pyridinyl]-4-thiazolyl]methyl]-3-methyl-4-isoxazolecarboxamide]",1
–,162,198,"C[C@@H]1CN(c2nc(CNC(=O)CC3CC3)c(-c3ccnc(C(F)(F)F)c3)s2)C[C@H](C)O1 [Compound 200, N-[[2-[(2R,6S)-2,6-dimethyl-4-morpholinyl]-5-[2-(trifluoromethyl)-4-pyridinyl]-4-thiazolyl]methyl]-cyclopropaneacetamide]",1
930,245,216,"CC(C)C(=O)NCc1nc(N2C[C@@H](C)O[C@@H](C)C2)sc1-c1ccnc(C(F)(F)F)c1 [Compound 201, N-[[2-[(2R,6S)-2,6-dimethyl-4-morpholinyl]-5-[2-(trifluoromethyl)-4-pyridinyl]-4-thiazolyl]methyl]-2-methyl-propanamide]",1
–,3310,179,"Cc1cc(-c2sc(N3CC4CCC(C3)O4)nc2CNC(=O)C(C)C)cc(C)n1 [Compound 207, N-[[5-(2,6-dimethyl-4-pyridinyl)-2-(8-oxa-3-azabicyclo[3.2.1]oct-3-yl)-4-thiazolyl]methyl]-2-methyl-propanamide]",1
